System: yeast genes (level of expressed mRNA)
Experiment: DNA chip analysis of expressed mRNA of yeast genes after 2 h culture with a toxic chemical substance
Type: cell-based, Saccharomyces cerevisiae S288C
Experimental: Yeast (Saccharomyces cerevtisiae S288C (α SUC2mal mel gap2 CUP1)) were cultured at 25° C. on YPD medium (yeast extract 1%, polypepton 2%, glucose 2%). One of toxic chemical substances was added to the cell at logarithmic growth phase, and the cell was further cultured for two hours. Cell was cultured without any chemical substance in the same condition, and was used as control. Concentrations of the chemical substances were defined to inhibit the growth of the yeast but not lead to death.
After the completion of cultivation, the culture was centrifuged to collect the cells. To the cells, sodium acetate buffer (50 mM sodium acetate, 10 mM EDTA, 1% SDS) was added, and the mixture was shaken at 65° C. for five minutes, followed by returning to room temperature, and obtaining the supernatant, which procedure was repeated two times. To the supernatant, ½ amount of a solution of phenol/chloroform was added, and the mixture was centrifuged to give a supernatant, which was added with an equal amount of chloroform, and the mixture was centrifuged to give a supernatant. To the supernatant, an equal amount of isopropanol containing 0.3 M sodium acetate was added, and the mixture was allowed to stand at room temperature for 30 minutes, after which the mixture was centrifuged to give a sediment of the whole RNAs. Seventy % ethanol was added to the sediment, and the mixture was again centrifuged to give a sediment, which was then dried and dissolved in water. mRNA was isolated from the whole RNAs as followings. In view of the fact that a poly A chain is attached to the 3′ terminus of mRNA, a polynucleotide having a poly T structure which was immobilized on the surface of latex beads was used to trap the mRNA, and then the mRNA was washed and eluted with spine column (Oligotex-dT30<Super>mRNA Purification Kit, Takara). Reverse transcription of the mRNA was conducted with a reverse transcriptase (Super Script II Reverse Transcriptase; catalogue No. 18064-014, GibcoBRL) using fluorescence-labeled nucleotides to give cDNAs that were introduced with Cy3-dUTP or Cy5-dUTP during the reverse transcription.
The labeled cDNAs were dissolved in TE buffer (10 mM Tris-HCl/1 mM EDTA, pH8.0), and the solution was dropped on the DNA chip containing the whole genes of yeast (DNA Chip Research Inc. Japan) so that the cDNAs were hybridized on the DNA chip at 65° C. for over 12 hours. The fluoresces intensity of the DNA chip was read with a scanner, and the ratio relative to the fluorescence intensity resulting from the absence of chemical substance was estimated as the following, which is shown in Tables 1 to 9: [formula]
In the Tables, “Intensity” indicated in the rightmost column is a value of the level of expressed mRNA of each gene in control cells as divided by the average level of the expressions of the whole genes.

Question: How did the “The level of expressed mRNA in the presence of chemical substance/” value (yeast gene YKL086W, ratio to control without chemical) turn out when CdCl2 [(2)] was run?
Answer: 1.1

Question: And the “The level of expressed mRNA in the presence of chemical substance/The level of expressed mRNA in the absence of chemical substance” value (yeast gene YKL096W)?
Answer: 0.6

Question: And the “The level of expressed mRNA in the presence of chemical substance/” value (yeast gene YKL151C, ratio to control without chemical substance, 2 h culture)?
Answer: 3.1

Question: What about the “The level of expressed mRNA in the presence of chemical substance/” value (yeast gene YKL153W, ratio to control without chemical substance, 2 h culture) of the same substance?
Answer: 1.4

Question: What about the “The level of expressed mRNA in the presence of chemical substance/The level of expressed mRNA in the absence of chemical substance” value (yeast gene YKL165C) of the same substance?
Answer: 2.0

Question: What about the “The level of expressed mRNA in the presence of chemical substance/The level of expressed mRNA in the absence of chemical substance” value (yeast gene YKL193C) of the same substance?
Answer: 0.8

Question: And the “The level of expressed mRNA in the presence of chemical substance/” value (yeast gene YKL195W, ratio to control without chemical substance, 2 h culture)?
Answer: 0.5

Question: And the “The level of expressed mRNA in the presence of chemical substance/in the absence of chemical substance” value (yeast gene YKR009C)?
Answer: 1.2

Question: What about the “The level of expressed mRNA in the presence of chemical substance/” value (yeast gene YKR091W, ratio to control without chemical) of the same substance?
Answer: 2.3

Question: And the “The level of expressed mRNA in the presence of chemical substance/” value (yeast gene YLR054C, ratio to control without chemical substance, 2 h culture)?
Answer: 1.5

Question: And the “The level of expressed mRNA in the presence of chemical substance/The level of expressed mRNA in the absence of chemical substance” value (yeast gene YLR120C)?
Answer: 1.9

Question: What about the “The level of expressed mRNA in the presence of chemical substance/The level of expressed mRNA in the absence of chemical substance” value (yeast gene YLR136C) of the same substance?
Answer: 9.0

Question: What about the “The level of expressed mRNA in the presence of chemical substance/” value (yeast gene YLR149C, ratio to control without chemical substance, 2 h culture) of the same substance?
Answer: 1.9

Question: And the “The level of expressed mRNA in the presence of chemical substance/” value (yeast gene YLR152C, ratio to control without chemical substance, 2 h culture)?
Answer: 1.3

Question: And the “The level of expressed mRNA in the presence of chemical substance/The level of expressed mRNA in the absence of chemical substance” value (yeast gene YLR178C)?
Answer: 6.9

Question: And the “The level of expressed mRNA in the presence of chemical substance/” value (yeast gene YLR194C, ratio to control without chemical)?
Answer: 2.2

Question: What about the “The level of expressed mRNA in the presence of chemical substance/The level of expressed mRNA in the absence of chemical substance” value (yeast gene YLR250W) of the same substance?
Answer: 1.0

Question: And the “The level of expressed mRNA in the presence of chemical substance/” value (yeast gene YLR324W, ratio to control without chemical substance, 2 h culture)?
Answer: 1.2

Question: What about the “The level of expressed mRNA in the presence of chemical substance/The level of expressed mRNA in the absence of chemical substance” value (yeast gene YLR327C) of the same substance?
Answer: 3.3

Question: What about the “The level of expressed mRNA in the presence of chemical substance/” value (yeast gene YLR350W, ratio to control without chemical substance, 2 h culture) of the same substance?
Answer: 1.9

Question: And the “The level of expressed mRNA in the presence of chemical substance/in the absence of chemical substance” value (yeast gene YLR351C)?
Answer: 1.4

Question: What about the “The level of expressed mRNA in the presence of chemical substance/The level of expressed mRNA in the absence of chemical substance” value (yeast gene YLR356W) of the same substance?
Answer: 2.9

Question: And the “The level of expressed mRNA in the presence of chemical substance/The level of expressed mRNA in the absence of chemical substance” value (yeast gene YLR362W)?
Answer: 1.2

Question: What about the “The level of expressed mRNA in the presence of chemical substance/in the absence of chemical substance” value (yeast gene YLR375W) of the same substance?
Answer: 1.5

Question: And the “The level of expressed mRNA in the presence of chemical substance/” value (yeast gene YLR387C, ratio to control without chemical substance, 2 h culture)?
Answer: 1.6

Question: And the “The level of expressed mRNA in the presence of chemical substance/The level of expressed mRNA in the absence of chemical substance” value (yeast gene YLR391W)?
Answer: 0.7

Question: What about the “The level of expressed mRNA in the presence of chemical substance/The level of expressed mRNA in the absence of chemical substance” value (yeast gene YLR429W) of the same substance?
Answer: 1.0

Question: What about the “The level of expressed mRNA in the presence of chemical substance/” value (yeast gene YLR460C, ratio to control without chemical substance, 2 h culture) of the same substance?
Answer: 2.1

Question: And the “The level of expressed mRNA in the presence of chemical substance/” value (yeast gene YML117W, ratio to control without chemical substance, 2 h culture)?
Answer: 2.2

Question: What about the “The level of expressed mRNA in the presence of chemical substance/The level of expressed mRNA in the absence of chemical substance” value (yeast gene YMR004W) of the same substance?
Answer: 0.9

Question: What about the “The level of expressed mRNA in the presence of chemical substance/” value (yeast gene YMR009W, ratio to control without chemical substance, 2 h culture) of the same substance?
Answer: 1.9

Question: And the “The level of expressed mRNA in the presence of chemical substance/” value (yeast gene YMR067C, ratio to control without chemical substance, 2 h culture)?
Answer: 0.9

Question: And the “The level of expressed mRNA in the presence of chemical substance/” value (yeast gene YMR090W, ratio to control without chemical substance, 2 h culture)?
Answer: 9.5

Question: And the “The level of expressed mRNA in the presence of chemical substance/The level of expressed mRNA in the absence of chemical substance” value (yeast gene YMR094W)?
Answer: 0.5

Question: What about the “The level of expressed mRNA in the presence of chemical substance/” value (yeast gene YMR095C, ratio to control without chemical) of the same substance?
Answer: 2.0

Question: And the “The level of expressed mRNA in the presence of chemical substance/” value (yeast gene YMR097C, ratio to control without chemical substance, 2 h culture)?
Answer: 1.0

Question: And the “The level of expressed mRNA in the presence of chemical substance/” value (yeast gene YMR102C, ratio to control without chemical substance, 2 h culture)?
Answer: 2.9

Question: What about the “The level of expressed mRNA in the presence of chemical substance/The level of expressed mRNA in the absence of chemical substance” value (yeast gene YMR104C) of the same substance?
Answer: 14.3

Question: And the “The level of expressed mRNA in the presence of chemical substance/” value (yeast gene YMR107W, ratio to control without chemical substance, 2 h culture)?
Answer: 3.9

Question: What about the “The level of expressed mRNA in the presence of chemical substance/” value (yeast gene YMR180C, ratio to control without chemical substance, 2 h culture) of the same substance?
Answer: 0.9

Question: And the “The level of expressed mRNA in the presence of chemical substance/” value (yeast gene YMR184W, ratio to control without chemical substance, 2 h culture)?
Answer: 5.4

Question: And the “The level of expressed mRNA in the presence of chemical substance/” value (yeast gene YMR191W, ratio to control without chemical substance, 2 h culture)?
Answer: 2.4

Question: And the “The level of expressed mRNA in the presence of chemical substance/The level of expressed mRNA in the absence of chemical substance” value (yeast gene YMR219W)?
Answer: 1.1

Question: What about the “The level of expressed mRNA in the presence of chemical substance/The level of expressed mRNA in the absence of chemical substance” value (yeast gene YMR226C) of the same substance?
Answer: 1.8

Question: What about the “The level of expressed mRNA in the presence of chemical substance/in the absence of chemical substance” value (yeast gene YMR267W) of the same substance?
Answer: 1.8

Question: What about the “The level of expressed mRNA in the presence of chemical substance/The level of expressed mRNA in the absence of chemical substance” value (yeast gene YMR275C) of the same substance?
Answer: 0.7

Question: What about the “The level of expressed mRNA in the presence of chemical substance/The level of expressed mRNA in the absence of chemical substance” value (yeast gene YMR276W) of the same substance?
Answer: 1.4

Question: And the “The level of expressed mRNA in the presence of chemical substance/in the absence of chemical substance” value (yeast gene YMR278W)?
Answer: 1.7

Question: What about the “The level of expressed mRNA in the presence of chemical substance/in the absence of chemical substance” value (yeast gene YMR293C) of the same substance?
Answer: 1.5

Question: And the “The level of expressed mRNA in the presence of chemical substance/” value (yeast gene YMR295C, ratio to control without chemical substance, 2 h culture)?
Answer: 1.0

Question: What about the “The level of expressed mRNA in the presence of chemical substance/The level of expressed mRNA in the absence of chemical substance” value (yeast gene YMR314W) of the same substance?
Answer: 1.2

Question: And the “The level of expressed mRNA in the presence of chemical substance/” value (yeast gene YMR316W, ratio to control without chemical substance, 2 h culture)?
Answer: 2.9

Question: What about the “The level of expressed mRNA in the presence of chemical substance/The level of expressed mRNA in the absence of chemical substance” value (yeast gene YNL006W) of the same substance?
Answer: 2.1

Question: What about the “The level of expressed mRNA in the presence of chemical substance/The level of expressed mRNA in the absence of chemical substance” value (yeast gene YNL007C) of the same substance?
Answer: 2.4

Question: What about the “The level of expressed mRNA in the presence of chemical substance/” value (yeast gene YNL044W, ratio to control without chemical substance, 2 h culture) of the same substance?
Answer: 0.9

From US20050112573A1, “Method of detecting toxic substance” (priority 2001, published 2005)
